Results from US20250250559A1, “METHOD TO ANALYZE AND OPTIMIZE GENE EDITING MODULES AND DELIVERY APPROACHES” (Hoffmann-La Roche Inc., priority 2016, published 2025).
Where “and” joins values, the source holds several entries; their conditions need not be identical. Equal values may be shown once. Entries after “also recorded” stand apart in the source; their conditions may differ.

Legend:
DPH1 gene [1] = assay: DT + PM double resistant colony count after DPH1 gene editing (integration with inactivation); type: cell-based, human; settings: for # of DT + PM resistant colonies (40,000 seeded cells) / # of DT + PM resistant colonies (40,000 seeded cells) (unheaded second sub-column: mean): DPH1 (gRNA length), TF eff. = 31%; for # of DT + PM resistant colonies (40,000 seeded cells) / # of PM + DT resistant colonies (40,000 seeded cells): MCF7, individual samples A-D; for # of PM + DT resistant colonies (40,000 seeded cells) / # of PM + DT resistant colonies (40,000 seeded cells) (unheaded second sub-column: mean): DPH1 assay (integr. vs. (integr. + k.o.)), TF eff. = 67*%; for # of DT + PM resistant colonies (80,000 seeded cells): DPH1 assay editing entities, MCF-7, individual replicates, TF eff. = 33%
Method: MCF7 cells (Brooks, et al. 1973) were originally obtained from ATCC (subsequently propagated in an in-house cell bank) and maintained in RPMI 1641 medium supplemented with 10% FCS, 2 mM L-Glutamine and penicillin/streptomycin at 37° C. and 85% humidity. For transfection of plasmids harboring gene-editing modules, 3,000,000 cells were seeded in a 10 cm diameter culture dish and cultivated at 37° C. and humidified 5% CO2. 24 h after seeding, cells were transfected with 20 μg total DNA using JetPEI (Polyplus) according to the manufacturer's protocol but with an N/P ratio of 6:1. Transfection efficiency was determined after 24 h by flow cytometry (FACS Calibur, BD biosciences) of cells that were transfected with a modified eGFP expression plasmid (Zhang, et al. 1996).
CRISPR/Cas module for targeted integration contains a puromycin (PM) resistance gene expression cassette without promoter to avoid transient expression. Thus, detection of integration of recombinant sequences into the genome was detected by determining sensitivity of cells towards PM. A concentration of 500 ng/μL PM (which quantitatively eliminates wildtype MCF7 cells) was applied to select MCF7 cells with stably integrated expression cassettes. PM-resistant colonies selected with the same procedure as described above for the DT selection and visualized and quantified (between 12 and 14 days after start of selection) in the same manner as described above for toxin resistant colonies. Number of PM resistant colonies obtained with non-target guide sequences (scrambled gRNA, FIG. 1) reflect the nonspecific integration background. Increase in colonies (above nonspecific background) obtained with target-gene gRNAs which are PM-resistant but toxin sensitive reflect integration into just one target allele, leaving the other dph1 or dph2 allele unaffected. PM resistant colonies that are also DT resistant have the expression cassette integrated into at least target allele and the other allele either inactivated or inactivated accompanied by yet another integration event.

DPH1 gene [2] = assay: DT resistant colony count after DPH1 gene editing (homozygous gene inactivation); type: cell-based, human; settings: for # of DT resistant colonies (20,000 seeded cells) / # of DT resistant colonies (20,000 seeded cells) (unheaded second sub-column: mean): DPH1 (gRNA length), TF eff. = 31%; for # of DT resistant colonies (20,000 seeded cells): MCF7, individual samples A-D; for # of DT resistant colonies (mean of the samples): DPH1 assay (integr. vs. k.o.), 20,000 seeded cells; for # of DT resistant colonies (mean of the samples) / # of DT resistant colonies: TF eff. = 38%; for # of DT resistant colonies: DPH1 assay (integr. vs. k.o.), MCF7, 20,000 seeded cells, individual samples; for generation of DTr colonies: MCF7
Method: MCF7 cells (Brooks, et al. 1973) were originally obtained from ATCC (subsequently propagated in an in-house cell bank) and maintained in RPMI […] medium supplemented with 10% FCS, 2 mM L-Glutamine and penicillin/streptomycin at 37° C. and 85% humidity. For transfection of plasmids harboring gene-editing modules, 3,000,000 cells were seeded in a 10 cm diameter culture dish and cultivated at 37° C. and humidified 5% CO2. 24 h after seeding, cells were transfected with 20 μg total DNA using JetPEI (Polyplus) according to the manufacturer's protocol but with an N/P ratio of 6:1. Transfection efficiency was determined after 24 h by flow cytometry (FACS Calibur, BD biosciences) of cells that were transfected with a modified eGFP expression plasmid (Zhang, et al. 1996).
Plasmids encoding CRISPR/Cas9 gene-editing entities (i.e. knock-out and integration systems) against Dph1 (gRNA target sequence: […] (SEQ ID NO: 01) derived from RefSeq: NM_001383) and Dph2 (gRNA target sequence: […] (SEQ ID NO: 02) derived from RefSeq: NM_001039589, NM_001384), and scrambled control (gRNA sequence: […] (SEQ ID NO: 03)) were obtained from OriGene. This system comprises one plasmid expressing a ˜100 nt gRNA under control of a U6 promoter as well as Cas9 nuclease under control of a CMV promoter and a Donor plasmid with a promoter-less GFP/PM expression cassette flanked by homologous arms to the target gene (Dph1 or Dph2). Additional Dph1 gRNA sequence variants of different sizes (OriGene) […]
MCF7 cells which have all chromosomal copies of DPH1 or DPH2 inactivated are resistant to diphtheria toxin (Stahl, et al. 2015). Thus, occurrence and frequency of toxin resistant cells/colonies upon CRISPR/Cas inflicted gene inactivation provides a measure for efficiency of inactivation of all gene copies. Therefore, MCF/cells were transfected as described in Example 1 with (i) a GFP expression plasmid as transfection control, (ii) the CRISPR/Cas9 Dph1 or Dph2 knock-out/integration system and (iii) knock-out/integration entities containing a scrambled gRNA to determine Cas9 independent integration frequencies. After determination of transfection efficiency, cells were seeded in 6-well plates. For quantification of homozygous knock-out events by DT 20000 cells were seeded and for quantification of integration events by PM or both events 40000 cells were seeded. RPMI medium was exchanged by RPMI medium containing DT or PM or both toxins 3 days after cell seeding. Exchange of medium was repeated every 2-3 days until all dead cells were removed from the plates and actively growing colonies could be detected via microscopic inspection. Thereafter (between day 12 and day 14 after start of toxin exposure), cells were washed 3 times with PBS and subsequently stained with ice cold methylene blue (0.2% in 50% EtOH). Methylene blue solution was subsequently removed and the plates were carefully washed under running water. Finally, cell colonies were counted under the microscope with a 5 mm grid foil.
MCF7 cells which have all chromosomal copies of DPH1 inactivated are DT resistant. Thus, occurrence and frequency of DTr colonies upon ZFN inflicted gene inactivation and/or cassette integration provides a measure for efficacy of inactivation of all gene copies. The ZFN recognition sequence ([…], cleavage site, SEQ ID NO: 10) are derived from NM_001383.3 (DPH1-wt) and were obtained from Sigma Aldrich. A PAC integration cassette for this position was obtained from OriGene. MCF7 cells were transfected as described above with (i) a GFP expression plasmid, (ii) the plasmid encoding DPH1-targeting ZFN and (iii) the DPH1-targeting PAC-integration cassette. After determination of transfection efficiency, cells were seeded in 6-well plates. For quantification of homozygous knock-out events (DTr) 20,000 cells were seeded, 40,000 cells for quantification of integration events (PMr) or double resistances. […]

[3] = listed as 20 mer Dph1 CRISPR Cas9 gRNA

Substance	# of DT + PM resistant colonies (40,000 seeded cells) (DPH1 gene [1])	# of DT + PM resistant colonies (40,000 seeded cells) (unheaded second sub-column: mean) (DPH1 gene [1])	# of PM + DT resistant colonies (40,000 seeded cells) (DPH1 gene [1])	# of PM + DT resistant colonies (40,000 seeded cells) (unheaded second sub-column: mean) (DPH1 gene [1])	# of DT + PM resistant colonies (80,000 seeded cells) (DPH1 gene [1])	# of DT resistant colonies (20,000 seeded cells) (DPH1 gene [2])	# of DT resistant colonies (20,000 seeded cells) (unheaded second sub-column: mean) (DPH1 gene [2])	# of DT resistant colonies (mean of the samples) (DPH1 gene [2])	# of DT resistant colonies (DPH1 gene [2])	further results
20 mer SpCas9 DPH1 gRNA: Plasmids encoding SpCas9 and Dph1 gRNA (target CAGGGCGGCCGAGACGGCCC, SEQ ID NO: 01) plus PAC donor plasmid, OriGene	6 and 5 and 7 (2×)	6	15 and 13 and 11 and 12	13	5 and 4 and 3	417 and 406 and 409 and 404	409	472	364 and 545 and 543 and 435	# of DT + PM resistant colonies (40,000 seeded cells) (DPH1 gene [1]; [3]): 6 and 5 and 7 (2×); # of PM + DT resistant colonies (40,000 seeded cells) (DPH1 gene [1]; listed as Dph1 CRISPR Cas9 gRNA): 15 and 13 and 11 and 12; efficiency relative to ZFN-editing (gene inactivation and integration) (DPH1 gene [2]): twice as efficient; efficiency relative to engineered high fidelity CRISPR/Cas9 (DPH1 gene [2]): 5 fold; # of DT resistant colonies (20,000 seeded cells) (DPH1 gene [2]; [3]): 417 and 406 and 409 and 404; # of DT resistant colonies (DPH1 gene [2]; listed as CRISPR Cas9 Dph1 gRNA): 364 and 545 and 543 and 435; DPH1 inactivation efficacy in dependence on gRNA length (DPH1 gene [2]; DTr colonies): maximum DPH1 inactivation efficacy; also recorded: maximal DPH1 gene inactivation efficiency; frequency of complete inactivation of the DPH1 gene (all alleles) (DPH1 gene [2]; MCF7, FIG. 5A): ~6 % of all transfected cells; efficacy of inactivation of both DPH1 alleles (DTr) over integration of the PAC expression cassette (PMr) (DPH1 gene [2]; MCF7, FIG. 6): 30-50 fold; frequency of complete inactivation of the DPH1 gene (all alleles) (DPH1 gene [2]; MCF7, considering transfection efficiencies of 40%): 2.5 % of all cells
20 mer SpCas9 scRNA: Scrambled control gRNA GCACTACCAGAGCTAACTCA (SEQ ID NO: 03) with SpCas9 and donor plasmid [reference compound]	0	0	0	0	0	0	0	0	0	generation of DTr colonies (DPH1 gene [2]): did not generate any DTr colony; generation of DTr colonies (DPH1 gene [2]; listed as scrambled guides): did not generate any DT-resistant colony
